Source: US7494824B2, “Interactive system for presenting and eliminating substances” (Max-Planck-Gesellschaft zur Förderung der Wissenschaften e. …, priority 1997, dated 2009)

Experiments:
[1] = Urea breakdown in blood plasma solution on urease-doped PMMA capillary dialyzer system; format: biochemical
Experimental: As model enzyme, urease (EC 3.5.1.5., available from Sigma, order no. U 1500) is used. The preparation of a PEG-coupled urease preparation: 100 mg urease (type III, specific activity 20,000 to 30,000 U/g) are dissolved in 80 ml 0.1-mol borate buffer (pH 8) and added to 250 mg methoxy polyethylene glycol (25,000)-4-nitrophenyl carbonate and incubated for 24 h at 5° C. The reaction is stopped by a several times higher molar excess of TRIS, dialyzed against TRIS-HCl (pH 8) and developed in a HP-Q-sepharose column having a linear NaCl gradient (pH 8). The PEG urease conjugate elutes-at 180 to 200 mmol NaCl. The yield of PEG urease conjugate is 30-40%. The enzyme activity is measured by means of a urea assay. The cleaving activity is monitored by way of pH titration measuring and compared with non-conjugated urease. […] The urease coupled with 25 kD-polyethylene glycol is applied in a concentration of 2 mg (based on the protein content of the conjugate) to a miniaturized experimental capillary dialyzer having a surface of 50 cm^2. Already after the first circulation, more than 90% of the urease are immobilized on the surface. By the fifth recirculation cycle, the PEG urease is firmly installed on the surface of the membrane. […] A blood plasma solution (50 ml containing 30 mg urea) is applied to the urease-doped PMMA capillary dialyzer system. In the eluate of the experimental PEG-urease-PMMA membrane, the remaining amounts of urea are identified after 5, 10, 20, and 30 minutes by way of an enzyme assay. […] The ammonia test in the blood is positive during the last 25 minutes of the experiment. From the analysis, it can be doubtlessly concluded that a pegylated enzyme, bonded to the PMMA membrane, develops a local enzyme activity and is able to generate corresponding specific interactions with its substrate in the circulating blood.

[2] = Urea assay of enzyme activity, pH titration, compared with non-conjugated urease; format: biochemical
Experimental: (§1) As model enzyme, urease (EC 3.5.1.5., available from Sigma, order no. U 1500) is used. The preparation of a PEG-coupled urease preparation: 100 mg urease (type III, specific activity 20,000 to 30,000 U/g) are dissolved in 80 ml 0.1-mol borate buffer (pH 8) and added to 250 mg methoxy polyethylene glycol (25,000)-4-nitrophenyl carbonate and incubated for 24 h at 5° C. The reaction is stopped by a several times higher molar excess of TRIS, dialyzed against TRIS-HCl (pH 8) and developed in a HP-Q-sepharose column having a linear NaCl gradient (pH 8). The PEG urease conjugate elutes-at 180 to 200 mmol NaCl. The yield of PEG urease conjugate is 30-40%. The enzyme activity is measured by means of a urea assay. The cleaving activity is monitored by way of pH titration measuring and compared with non-conjugated urease. […] The urease coupled with 25 kD-polyethylene glycol is applied in a concentration of 2 mg (based on the protein content of the conjugate) to a miniaturized experimental capillary dialyzer having a surface of 50 cm^2. Already after the first circulation, more than 90% of the urease are immobilized on the surface. By the fifth recirculation cycle, the PEG urease is firmly installed on the surface of the membrane. […] A blood plasma solution (50 ml containing 30 mg urea) is applied to the urease-doped PMMA capillary dialyzer system. […]

[3] = Immobilization of PEG urease on miniaturized experimental PMMA capillary dialyzer; conditions: 2 mg on 50 cm^2 dialyzer, after the first circulation
Experimental: as §1

thrombin = thrombin (Homo sapiens, UniProt P00734); conditions: previous analyses, Dickneite G. et al.; cited from earlier work

Row | Substance | remaining urea in the eluate ([1]; 50 ml plasma containing 30 mg urea, after 30 min) | urea concentration in the blood plasma ([1]; 50 ml plasma containing 30 mg urea, within the first 10 min) | ammonia test in the blood ([1]; during the last 25 minutes of the experiment) | influence of pegylation on the ureolytic activity of the enzyme [2] | urease immobilized on the surface [3] | thrombin inhibiting agent quality (thrombin)
1 | PEG urease: urease (EC 3.5.1.5., Sigma) coupled with 25 kD-polyethylene glycol | unbound urea cannot be identified anymore | decreases rapidly | positive | slightly activity-increasing | more than 90% | –
2 | Mtr-Asn-D-Adf-Pip | – | – | – | – | – | highly specific and effective
